# Test results reported in PMC6211316, “Synthesis and biological evaluation of 3-arylcoumarin derivatives as potential anti-diabetic agents” (Journal of Enzyme Inhibition and Medicinal Chemistry, 2018).
# Tests used:
# [1] = hydroxyl radical scavenging; conditions: mean ± SD (n = 3), read-out: OH IC50 Value
# Method in brief: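 Fenton system of H2O2 (0.03%), FeSO4 (2 mmol/L) and salicylic acid (10 mmol/L) with compound solutions (0.4–2.0 mg/mL), incubated 30 min at 37 °C. Absorbance read at 510 nm. % OH scavenging = [A0−(A1−A2)]/A0×100, with A2 a sample blank using ethanol in place of salicylic acid.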
# α-Glucosidase = target: T1, α-Glucosidase (Saccharomyces cerevisiae, UniProt P53341); assay: biochemical; format: biochemical; conditions: for α-glucosidase inhibitory activity (in words): in vitro; for IC50: mean ± SD (n = 3), read-out: α-Glucosidase inhibitory activity IC50 Value
# T1 construct: purchased Sigma Aldrich G0660-750UN
# T1 sequence (P53341 whole entry): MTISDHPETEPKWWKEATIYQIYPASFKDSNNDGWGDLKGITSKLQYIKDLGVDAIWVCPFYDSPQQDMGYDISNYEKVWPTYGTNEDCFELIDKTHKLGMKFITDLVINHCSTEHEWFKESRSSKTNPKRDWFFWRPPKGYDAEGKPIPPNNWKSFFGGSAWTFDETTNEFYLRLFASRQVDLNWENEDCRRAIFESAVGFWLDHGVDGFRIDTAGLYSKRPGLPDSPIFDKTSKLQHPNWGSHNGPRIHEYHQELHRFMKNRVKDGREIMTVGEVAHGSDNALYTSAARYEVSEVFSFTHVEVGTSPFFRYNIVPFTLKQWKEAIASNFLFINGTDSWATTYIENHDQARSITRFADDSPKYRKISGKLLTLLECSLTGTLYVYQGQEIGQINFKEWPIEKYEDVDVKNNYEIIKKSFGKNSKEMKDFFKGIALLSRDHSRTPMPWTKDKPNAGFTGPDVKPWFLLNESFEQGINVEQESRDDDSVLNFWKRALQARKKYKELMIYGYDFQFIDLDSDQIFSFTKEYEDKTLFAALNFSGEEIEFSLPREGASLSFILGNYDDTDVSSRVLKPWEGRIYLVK
# Method in brief: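 Absorbance at 405 nm of released p-nitrophenol gave % inhibition, corrected for blank and sample-blank wells, and IC50 values, all in triplicate. Reactions combined yeast enzyme, PNPG and test compound in pH 6.8 phosphate buffer (100 mM) at 37 °C for 20 min following a 10-min preincubation, ended with Na2CO3.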
# AGEs formation = assay: In vitro inhibitory activity of AGEs formation (bovine serum albumin/glucose); format: biochemical; conditions: mean ± SD (n = 3)
# Method in brief: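 Bovine serum albumin (10 mg/mL) with 0.2 M glucose in 50 mM PBS, pH 7.4, plus 0.02% sodium azide, was mixed with compound solutions (0.5–1000 μg/mL in DMSO) and held 14 d at 37 °C. AGE fluorescence was read at ex 350/em 420 nm in triplicate. Inhibition was corrected with glucose-free blanks, and IC50 calculated.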
# STZ-diabetic mice = assay: Acute hypoglycemic assay in STZ-diabetic mice; format: in vivo; conditions: for Blood glucose concentration / % Variation of glycemia: STZ-diabetics mice; for highest anti-hyperglycemic effect: STZ-diabetic mice
# Protocol: Type II diabetes mellitus was induced in mice by a single intraperitoneal injection of freshly prepared STZ (Sigma Aldrich) dissolved in 0.1M citrate buffer, pH 4.5, in a volume of 110 mg/kg of bw. After 7 days of STZ administration, blood glucose levels of each mouse were determined. Mice with blood glucose levels higher than 11 mM were considered diabetic and were included in the study.
# STZ-induced diabetic mice and normal mice were placed in single cages with wire-net floors and deprived of food for 12 h before experimentation but allowed free access to tap water throughout. The compounds (at the doses of 10, 30, and 100 mg/kg of bw) were suspended in 0.05% Tween-80 in saline solution. Glibenclamide (10 mg/kg of bw) was suspended in the same vehicle. The target compounds were freshly prepared immediately before experimentation and administered by the intragastrical route at the doses of 10 ml/kg of bw. Control mice received only the vehicle (0.05% Tween-80 in saline solution) by the same route. Blood glucose levels were measured at 0, 1.5, 3, 5, 7, and 9 h after drugs administration.
Structure (SMILES),IC50 [1],α-glucosidase inhibitory activity (in words) (α-Glucosidase),IC50 (α-Glucosidase),IC50 (AGEs formation),"Blood glucose concentration (STZ-diabetic mice; 10 mg/kg of bw per os, 0h)","% Variation of glycemia (STZ-diabetic mice; 10 mg/kg of bw per os, 1.5h)","Blood glucose concentration (STZ-diabetic mice; 10 mg/kg of bw per os, 1.5h)","% Variation of glycemia (STZ-diabetic mice; 10 mg/kg of bw per os, 3h)","Blood glucose concentration (STZ-diabetic mice; 10 mg/kg of bw per os, 3h)","% Variation of glycemia (STZ-diabetic mice; 10 mg/kg of bw per os, 5h)","Blood glucose concentration (STZ-diabetic mice; 10 mg/kg of bw per os, 5h)","% Variation of glycemia (STZ-diabetic mice; 10 mg/kg of bw per os, 7h)","Blood glucose concentration (STZ-diabetic mice; 10 mg/kg of bw per os, 7h)","% Variation of glycemia (STZ-diabetic mice; 10 mg/kg of bw per os, 9h)","Blood glucose concentration (STZ-diabetic mice; 10 mg/kg of bw per os, 9h)","Blood glucose concentration (STZ-diabetic mice; 30 mg/kg of bw per os, 0h)","% Variation of glycemia (STZ-diabetic mice; 30 mg/kg of bw per os, 1.5h)","Blood glucose concentration (STZ-diabetic mice; 30 mg/kg of bw per os, 1.5h)","% Variation of glycemia (STZ-diabetic mice; 30 mg/kg of bw per os, 3h)","Blood glucose concentration (STZ-diabetic mice; 30 mg/kg of bw per os, 3h)",also measured
"Cc1ccccc1-c1cc2ccc(O)cc2oc1=O [Compound 11, 7-Hydroxy-3-(2-methylphenyl)-coumarin]",> 1000 µM,moderate to excellent inhibitory activity,16.4 ± 1.23 µM,> 1000 µM,24.9 ± 4.1 mM,(−17.27) %,20.6 ± 5.9 mM,(−37.75) %,15.5 ± 8.5 mM,(−48.59) %,12.8 ± 10.4 mM,(−54.22) %,11.4 ± 8.2 mM,(−52.21) %,11.9 ± 8.5 mM,25.3 ± 6.3 mM,(−20.95) %,20.0 ± 6.3 mM,(−34.78) %,16.5 ± 6.4 mM,"% Variation of glycemia (STZ-diabetic mice; 30 mg/kg of bw per os, 5h): (−55.41) %; Blood glucose concentration (STZ-diabetic mice; 30 mg/kg of bw per os, 5h): 11.3 ± 4.0 mM; % Variation of glycemia (STZ-diabetic mice; 30 mg/kg of bw per os, 7h): (−62.40) %; Blood glucose concentration (STZ-diabetic mice; 30 mg/kg of bw per os, 7h): 9.5 ± 3.9 mM; % Variation of glycemia (STZ-diabetic mice; 30 mg/kg of bw per os, 9h): (−68.14) %; Blood glucose concentration (STZ-diabetic mice; 30 mg/kg of bw per os, 9h): 8.1 ± 4.2 mM; Blood glucose concentration (STZ-diabetic mice; 100 mg/kg of bw per os, 0h): 23.5 ± 5.4 mM; % Variation of glycemia (STZ-diabetic mice; 100 mg/kg of bw per os, 1.5h): (−21.88) %; Blood glucose concentration (STZ-diabetic mice; 100 mg/kg of bw per os, 1.5h): 18.3 ± 3.9 mM; % Variation of glycemia (STZ-diabetic mice; 100 mg/kg of bw per os, 3h): (−34.89) %; Blood glucose concentration (STZ-diabetic mice; 100 mg/kg of bw per os, 3h): 15.3 ± 3.9 mM; % Variation of glycemia (STZ-diabetic mice; 100 mg/kg of bw per os, 5h): (−52.76) %; Blood glucose concentration (STZ-diabetic mice; 100 mg/kg of bw per os, 5h): 11.1 ± 4.4 mM; % Variation of glycemia (STZ-diabetic mice; 100 mg/kg of bw per os, 7h): (−62.21) %; Blood glucose concentration (STZ-diabetic mice; 100 mg/kg of bw per os, 7h): 8.9 ± 2.8 mM; % Variation of glycemia (STZ-diabetic mice; 100 mg/kg of bw per os, 9h): (−65.27) %; Blood glucose concentration (STZ-diabetic mice; 100 mg/kg of bw per os, 9h): 8.2 ± 2.6 mM"
"O=c1oc2ccc(O)cc2cc1-c1ccc(O)cc1 [Compound 17, 6-Hydroxy-3-(4-hydroxyphenyl)-coumarin]",> 1000 µM,moderate to excellent inhibitory activity,11.5 ± 1.3 µM,24.68 ± 0.12 µM,26.9 ± 3.8 mM,(−8.92) %,24.5 ± 3.0 mM,(−15.24) %,22.8 ± 2.3 mM,(−38.29) %,16.6 ± 5.8 mM,(−44.98) %,14.8 ± 8.0 mM,(−45.35) %,14.7 ± 9.5 mM,23.3 ± 3.2 mM,(−23.18) %,17.9 ± 5.7 mM,(−50.22) %,11.6 ± 4.8 mM,"hypoglycemic effect (STZ-diabetic mice; STZ-diabetic animals, 30 mg/kg of bw, started from 3 h and persisted throughout the experiment): > 50%; highest anti-hyperglycemic effect (STZ-diabetic mice; 30 mg/kg, at 9 h): ~70.39%; highest anti-hyperglycemic effect (STZ-diabetic mice; 100 mg/kg, at 7 h): ~70.51%; % Variation of glycemia (STZ-diabetic mice; 30 mg/kg of bw per os, 5h): (−64.38) %; Blood glucose concentration (STZ-diabetic mice; 30 mg/kg of bw per os, 5h): 8.3 ± 3.8 mM; % Variation of glycemia (STZ-diabetic mice; 30 mg/kg of bw per os, 7h): (−68.24) %; Blood glucose concentration (STZ-diabetic mice; 30 mg/kg of bw per os, 7h): 7.4 ± 6.7 mM; % Variation of glycemia (STZ-diabetic mice; 30 mg/kg of bw per os, 9h): (−70.39) %; Blood glucose concentration (STZ-diabetic mice; 30 mg/kg of bw per os, 9h): 6.9 ± 7.9 mM; Blood glucose concentration (STZ-diabetic mice; 100 mg/kg of bw per os, 0h): 23.4 ± 5.7 mM; % Variation of glycemia (STZ-diabetic mice; 100 mg/kg of bw per os, 1.5h): (−19.66) %; Blood glucose concentration (STZ-diabetic mice; 100 mg/kg of bw per os, 1.5h): 18.8 ± 6.0 mM; % Variation of glycemia (STZ-diabetic mice; 100 mg/kg of bw per os, 3h): (−46.58) %; Blood glucose concentration (STZ-diabetic mice; 100 mg/kg of bw per os, 3h): 12.5 ± 4.7 mM; % Variation of glycemia (STZ-diabetic mice; 100 mg/kg of bw per os, 5h): (−67.52) %; Blood glucose concentration (STZ-diabetic mice; 100 mg/kg of bw per os, 5h): 7.6 ± 3.8 mM; % Variation of glycemia (STZ-diabetic mice; 100 mg/kg of bw per os, 7h): (−70.51) %; Blood glucose concentration (STZ-diabetic mice; 100 mg/kg of bw per os, 7h): 6.9 ± 2.6 mM; % Variation of glycemia (STZ-diabetic mice; 100 mg/kg of bw per os, 9h): (−65.81) %; Blood glucose concentration (STZ-diabetic mice; 100 mg/kg of bw per os, 9h): 8.0 ± 2.3 mM"
